{"source": "paper PMC3093256", "about": "“Synthesis of 1-Substituted Carbazolyl-1,2,3,4-tetrahydro- and Carbazolyl-3,4-dihydro-β-carboline Analogs as Potential Antitumor Agents” (Marine Drugs, 2011)", "key": {"[1]": {"molecular_target": "T1, human DNA topoisomerase II (Homo sapiens, UniProt P11388)", "T1 construct": "purchased TopoGen", "T1 sequence (P11388 whole entry)": "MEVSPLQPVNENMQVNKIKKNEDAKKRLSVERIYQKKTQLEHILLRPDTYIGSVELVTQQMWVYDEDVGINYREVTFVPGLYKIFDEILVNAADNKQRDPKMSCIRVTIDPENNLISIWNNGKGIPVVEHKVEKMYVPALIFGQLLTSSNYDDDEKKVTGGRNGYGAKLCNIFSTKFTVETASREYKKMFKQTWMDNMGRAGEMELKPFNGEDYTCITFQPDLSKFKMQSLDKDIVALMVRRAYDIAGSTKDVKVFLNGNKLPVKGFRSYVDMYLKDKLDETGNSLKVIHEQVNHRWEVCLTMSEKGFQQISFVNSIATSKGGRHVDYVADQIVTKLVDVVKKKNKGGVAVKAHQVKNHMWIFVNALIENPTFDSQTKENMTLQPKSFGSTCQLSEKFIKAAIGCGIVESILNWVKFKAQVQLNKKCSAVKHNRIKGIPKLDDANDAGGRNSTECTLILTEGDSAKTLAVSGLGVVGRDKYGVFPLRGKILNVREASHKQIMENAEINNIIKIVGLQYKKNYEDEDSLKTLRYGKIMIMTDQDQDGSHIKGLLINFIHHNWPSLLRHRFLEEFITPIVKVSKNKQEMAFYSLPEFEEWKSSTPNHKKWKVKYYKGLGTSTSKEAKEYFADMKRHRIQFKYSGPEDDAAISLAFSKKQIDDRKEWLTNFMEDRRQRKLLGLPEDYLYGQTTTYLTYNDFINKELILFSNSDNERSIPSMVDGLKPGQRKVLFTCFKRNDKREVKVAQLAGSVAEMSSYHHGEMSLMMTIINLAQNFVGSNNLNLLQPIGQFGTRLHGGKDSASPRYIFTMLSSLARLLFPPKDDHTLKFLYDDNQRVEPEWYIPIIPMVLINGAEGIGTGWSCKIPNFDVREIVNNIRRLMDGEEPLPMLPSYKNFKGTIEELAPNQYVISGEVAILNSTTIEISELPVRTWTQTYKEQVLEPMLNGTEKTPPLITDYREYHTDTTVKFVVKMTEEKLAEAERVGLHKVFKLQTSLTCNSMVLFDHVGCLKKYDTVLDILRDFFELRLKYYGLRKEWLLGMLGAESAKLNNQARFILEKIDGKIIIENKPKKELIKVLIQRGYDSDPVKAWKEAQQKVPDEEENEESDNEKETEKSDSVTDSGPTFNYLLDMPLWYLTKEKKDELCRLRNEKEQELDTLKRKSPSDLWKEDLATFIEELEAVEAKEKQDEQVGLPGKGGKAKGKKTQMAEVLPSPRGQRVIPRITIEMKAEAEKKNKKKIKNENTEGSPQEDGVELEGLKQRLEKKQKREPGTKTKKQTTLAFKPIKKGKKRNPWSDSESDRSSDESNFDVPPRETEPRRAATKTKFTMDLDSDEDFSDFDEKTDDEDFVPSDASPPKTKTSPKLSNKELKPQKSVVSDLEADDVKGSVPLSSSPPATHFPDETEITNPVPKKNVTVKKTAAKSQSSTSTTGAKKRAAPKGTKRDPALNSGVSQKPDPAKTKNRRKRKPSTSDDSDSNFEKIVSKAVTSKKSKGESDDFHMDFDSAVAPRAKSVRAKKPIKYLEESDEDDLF", "assay": "Relaxation assay of topoisomerase II (supercoiled pBR322)", "format": "biochemical", "conditions": "for IC50: five concentrations 5, 10, 25, 50 and 100 μg/mL, read-out: Inhibition of DNA topoisomerase II IC50 (converted)", "method": "(§1) Topoisomerases I and II (topo I and II) assays were measured by assessing relaxation of supercoiled pBR322 plasmid DNA according to [24]. […] In summary, topo I (TopoGen) was mixed with the test sample and 10° volume of assay buffer (100 mM Tris-HCl, 10 mM EDTA, 1.5 M NACl, 1.0% BSA, […], and 50% glycerol), and then supercoiled DNA (pBR322) was added. In topo II assay, the mixture contained test sample and buffer including 50 mM Tris-HCl, 120 mM KCl, 10 mM MgCl2, 0.5 mM ATP, 0.5 mM dithiothreitol, 2 μg BSA, pBR322 plasmid DNA (0.25 μg), and 3U of topo II (TopoGen) in final volume of 20 μL. After incubation of topo I or topo II mixture for 30 min at 37 °C, 2 λ 10% SDS and 2.5 λ proteinase K were added for 1 h. The reaction mixtures were electrophoresed on a 2% agarose gel (50 V, 20 min; 100 V, 30 min; 110 V, 30 min) and stained with ethidium bromide. Finally, by a densitometer of ImageMaster® (Fujifilm thermal imaging system, FTI-500), the gels were directly scanned and the area representing supercoiled DNA was calculated."}, "[2]": {"system": "DLD (human colon adenocarcinoma)", "assay": "Cytotoxicity assay, DLD cells", "format": "cell-based", "conditions": "Homo sapiens, 72 h, 3 days incubation, by interpolation", "method": "(§2) The cytotoxic activities of compounds against KB (human mouth epidermoid carcinoma), DLD (human colon adenocarcinoma), NCI-H661 (human lung large cell carcinoma), Hepa (human hepatoma), and HepG2/A2 (human hepatoblastoma) cells were assayed by the […] assay as previously described. The cells for assay were cultured in RPMI-1640 medium supplemented with […] in an incubator at 37 °C. The cytotoxicity assay depends on the binding of methylene blue to fixed monolayers of cells at pH 8.5, washing the monolayer, and releasing the dye by lowering the pH value. Samples and control standard drugs were prepared at a concentration of 1, 10, 40, and 100 μg/mL. After seeding 2880 cells/well in a 96-well microplate for 3 h, 20 μL of sample or standard agent was placed in each well and incubated at 37 °C for 3 days. After removing the medium from the microplates, the cells were fixed with 10% formaldehyde in 0.9% saline for 30 min, then dyed with 1% (w/v) methylene blue in 0.01 M borate-buffer (100 μL/well) for 30 min. The 96-well plate was dipped into a 0.01 M borate-buffer solution four times in order to remove the dye. Then, 100 μL/well of EtOH-0.1 M HCl (1:1) was added as a dye eluting solvent, and the absorbance was measured on a microtiter plate reader (Dynatech, MR 7000) at a wavelength of 650 nm. […] Doxorubicin was used as a standard compound."}, "[3]": {"system": "HepG2/A2 (human hepatoma)", "assay": "Cytotoxicity assay, HepG2/A2 cells", "format": "cell-based", "conditions": "Homo sapiens, 72 h; HepG2/A2 cells, 3 days incubation, by interpolation", "method": "as §2"}, "Hepa (human hepatoma)": {"system": "Hepa (human hepatoma)", "assay": "Cytotoxicity assay, Hepa cells", "format": "cell-based", "conditions": "72 h, 3 days incubation, by interpolation", "method": "as §2"}, "[4]": {"system": "KB (human mouth epidermoid carcinoma)", "assay": "Cytotoxicity assay, KB cells", "format": "cell-based", "conditions": "72 h, 3 days incubation, by interpolation", "method": "as §2"}, "[5]": {"system": "NCI-H661 (human lung large cell carcinoma)", "assay": "Cytotoxicity assay, NCI-H661 cells", "format": "cell-based", "conditions": "72 h, 3 days incubation, by interpolation", "method": "as §2"}, "[6]": {"molecular_target": "T2, human DNA topoisomerase I (Homo sapiens, UniProt P11387)", "T2 construct": "purchased TopoGen", "T2 sequence (P11387 1-765)": "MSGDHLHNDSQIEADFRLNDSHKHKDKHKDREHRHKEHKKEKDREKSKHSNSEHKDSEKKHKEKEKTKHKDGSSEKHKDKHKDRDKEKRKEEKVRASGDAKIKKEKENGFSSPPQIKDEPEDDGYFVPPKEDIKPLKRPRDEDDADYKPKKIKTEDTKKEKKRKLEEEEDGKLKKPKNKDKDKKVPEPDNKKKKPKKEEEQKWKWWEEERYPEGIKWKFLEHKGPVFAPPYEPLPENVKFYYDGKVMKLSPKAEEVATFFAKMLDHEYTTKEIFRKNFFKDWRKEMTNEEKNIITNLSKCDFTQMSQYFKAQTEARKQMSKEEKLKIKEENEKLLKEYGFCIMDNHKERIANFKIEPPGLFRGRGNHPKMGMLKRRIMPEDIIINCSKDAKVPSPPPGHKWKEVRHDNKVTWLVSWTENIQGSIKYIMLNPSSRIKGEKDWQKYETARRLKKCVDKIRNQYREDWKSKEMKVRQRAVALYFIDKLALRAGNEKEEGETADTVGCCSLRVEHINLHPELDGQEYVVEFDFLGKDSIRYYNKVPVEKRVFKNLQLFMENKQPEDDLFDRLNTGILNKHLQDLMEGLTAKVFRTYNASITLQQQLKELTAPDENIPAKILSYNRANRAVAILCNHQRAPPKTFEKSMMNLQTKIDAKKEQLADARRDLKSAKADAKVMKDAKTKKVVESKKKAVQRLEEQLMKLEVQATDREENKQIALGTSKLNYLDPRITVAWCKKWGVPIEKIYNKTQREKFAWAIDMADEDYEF", "assay": "Relaxation assay of topoisomerase I (supercoiled pBR322)", "format": "biochemical", "conditions": "five concentrations 5, 10, 25, 50 and 100 μg/mL; read-out: Inhibition of DNA topoisomerase I IC50 (converted)", "method": "as §1"}, "human tumor cell lines": {"system": "human tumor cell lines", "assay": "Cytotoxicity assay, tumor cell panel (cell line not specified)", "format": "cell-based", "conditions": "positive control", "method": "The cytotoxic activities of compounds against KB (human mouth epidermoid carcinoma), DLD (human colon adenocarcinoma), NCI-H661 (human lung large cell carcinoma), Hepa (human hepatoma), and HepG2/A2 (human hepatoblastoma) cells were assayed by the MTT{3-(4,5-dimethylthiazole-2-yl)-2,5-diphenyltetrazolium bromide} colorimetric assay as previously described. The cells for assay were cultured in RPMI-1640 medium supplemented with […] in an incubator at 37 °C. The cytotoxicity assay depends on the binding of methylene blue to fixed monolayers of cells at pH 8.5, washing the monolayer, and releasing the dye by lowering the pH value. Samples and control standard drugs were prepared at a concentration of 1, 10, 40, and 100 μg/mL. After seeding 2880 cells/well in a 96-well microplate for 3 h, 20 μL of sample or standard agent was placed in each well and incubated at 37 °C for 3 days. After removing the medium from the microplates, the cells were fixed with 10% formaldehyde in 0.9% saline for 30 min, then dyed with 1% (w/v) methylene blue in 0.01 M borate-buffer (100 μL/well) for 30 min. The 96-well plate was dipped into a 0.01 M borate-buffer solution four times in order to remove the dye. Then, 100 μL/well of EtOH-0.1 M HCl (1:1) was added as a dye eluting solvent, and the absorbance was measured on a microtiter plate reader (Dynatech, MR 7000) at a wavelength of 650 nm. […]"}}}
{"smiles": "CCCCCCCCCCCCCCCCCCCCn1c2ccccc2c2cc(C3=NCCc4c3[nH]c3ccccc43)ccc21", "note": "[Compound 18, 1-(9′-Eicosyl-3′-carbazolyl)-3,4-dihydro-β-carboline]", "values": [{"measurement": "inhibition of DNA topoisomerase II (in words)", "setting": "[1]; compared with etoposide", "value": "great activity"}, {"measurement": "IC50", "setting": "[1]", "value": 9.09, "unit": "µM"}, {"measurement": "melting point", "value": "91 to 93", "unit": "°C"}, {"measurement": "IC50", "setting": "[2]", "value": "> 20", "unit": "µg/mL"}, {"measurement": "IC50", "setting": "[3]", "value": "> 60", "unit": "µg/mL"}, {"measurement": "IC50", "setting": "Hepa (human hepatoma)", "value": "> 20", "unit": "µg/mL"}, {"measurement": "IC50", "setting": "[4]", "value": "> 20", "unit": "µg/mL"}, {"measurement": "IC50", "setting": "[5]", "value": "> 20", "unit": "µg/mL"}, {"measurement": "IC50", "setting": "[6]", "value": "> 162", "unit": "µM"}]}
{"smiles": "CCCCCCCCCCCCCCCCn1c2ccccc2c2cc(C3NCCc4c3[nH]c3ccccc43)ccc21", "note": "(stereo not drawn) [Compound 15, 1-(9′-Hexadecyl-3′-carbazolyl)-1,2,3,4-tetrahydro-β-carboline]", "values": [{"measurement": "IC50", "setting": "[1]", "value": "> 178", "unit": "µM"}, {"measurement": "melting point", "value": "111 to 113", "unit": "°C"}, {"measurement": "IC50", "setting": "[2]", "value": "> 20", "unit": "µg/mL"}, {"measurement": "IC50", "setting": "[3]", "value": "> 60", "unit": "µg/mL"}, {"measurement": "IC50", "setting": "Hepa (human hepatoma)", "value": "> 20", "unit": "µg/mL"}, {"measurement": "IC50", "setting": "[4]", "value": "> 20", "unit": "µg/mL"}, {"measurement": "IC50", "setting": "[5]", "value": "> 20", "unit": "µg/mL"}, {"measurement": "IC50", "setting": "[6]", "value": "> 178", "unit": "µM"}]}
{"smiles": "COc1cccc2c1C(=O)c1c(O)c3c(c(O)c1C2=O)C[C@@](O)(C(=O)CO)C[C@@H]3O[C@H]1C[C@H](N)[C@H](O)[C@H](C)O1", "note": "[Doxorubicin]", "values": [{"measurement": "IC50", "setting": "human tumor cell lines", "value": 0.1, "unit": "µg/mL"}]}
